Laboratory results as given in ChEMBL document CHEMBL1146931, “Inhibitors of VEGF receptors-1 and -2 based on the 2-((pyridin-4-yl)ethyl)pyridine template” (Bioorg Med Chem Lett, 2006).

Legend:
[1] = target: T1, Vascular endothelial growth factor receptor 2 (Homo sapiens, UniProt P35968); assay: Inhibition of VEGFR2 phosphorylation in HEK293 cells by cell-based ELISA
[2] = target: Vascular endothelial growth factor receptor 1 (Homo sapiens, UniProt P17948)
Description: Inhibition of VEGFR1 phosphorylation in presence of 2 uM ATP by HTRF assay

[3] = target: T1, Vascular endothelial growth factor receptor 2
Description: Inhibition of VEGFR2 phosphorylation in presence of 2 uM ATP by HTRF assay

[4] = system: Caco-2; assay: Intrinsic permeability in Caco-2 cells; details: human
[5] = target: T1, Vascular endothelial growth factor receptor 2; assay: Binding affinity to VEGFR2 at 0.058 uM
[6] = target: T1, Vascular endothelial growth factor receptor 2; assay: Binding affinity to VEGFR2 at 0.043 uM
[7] = target: T1, Vascular endothelial growth factor receptor 2; assay: Binding affinity to VEGFR2 at 0.031 uM

Vascular endothelial growth factor receptor 1, sequence (P17948 whole entry): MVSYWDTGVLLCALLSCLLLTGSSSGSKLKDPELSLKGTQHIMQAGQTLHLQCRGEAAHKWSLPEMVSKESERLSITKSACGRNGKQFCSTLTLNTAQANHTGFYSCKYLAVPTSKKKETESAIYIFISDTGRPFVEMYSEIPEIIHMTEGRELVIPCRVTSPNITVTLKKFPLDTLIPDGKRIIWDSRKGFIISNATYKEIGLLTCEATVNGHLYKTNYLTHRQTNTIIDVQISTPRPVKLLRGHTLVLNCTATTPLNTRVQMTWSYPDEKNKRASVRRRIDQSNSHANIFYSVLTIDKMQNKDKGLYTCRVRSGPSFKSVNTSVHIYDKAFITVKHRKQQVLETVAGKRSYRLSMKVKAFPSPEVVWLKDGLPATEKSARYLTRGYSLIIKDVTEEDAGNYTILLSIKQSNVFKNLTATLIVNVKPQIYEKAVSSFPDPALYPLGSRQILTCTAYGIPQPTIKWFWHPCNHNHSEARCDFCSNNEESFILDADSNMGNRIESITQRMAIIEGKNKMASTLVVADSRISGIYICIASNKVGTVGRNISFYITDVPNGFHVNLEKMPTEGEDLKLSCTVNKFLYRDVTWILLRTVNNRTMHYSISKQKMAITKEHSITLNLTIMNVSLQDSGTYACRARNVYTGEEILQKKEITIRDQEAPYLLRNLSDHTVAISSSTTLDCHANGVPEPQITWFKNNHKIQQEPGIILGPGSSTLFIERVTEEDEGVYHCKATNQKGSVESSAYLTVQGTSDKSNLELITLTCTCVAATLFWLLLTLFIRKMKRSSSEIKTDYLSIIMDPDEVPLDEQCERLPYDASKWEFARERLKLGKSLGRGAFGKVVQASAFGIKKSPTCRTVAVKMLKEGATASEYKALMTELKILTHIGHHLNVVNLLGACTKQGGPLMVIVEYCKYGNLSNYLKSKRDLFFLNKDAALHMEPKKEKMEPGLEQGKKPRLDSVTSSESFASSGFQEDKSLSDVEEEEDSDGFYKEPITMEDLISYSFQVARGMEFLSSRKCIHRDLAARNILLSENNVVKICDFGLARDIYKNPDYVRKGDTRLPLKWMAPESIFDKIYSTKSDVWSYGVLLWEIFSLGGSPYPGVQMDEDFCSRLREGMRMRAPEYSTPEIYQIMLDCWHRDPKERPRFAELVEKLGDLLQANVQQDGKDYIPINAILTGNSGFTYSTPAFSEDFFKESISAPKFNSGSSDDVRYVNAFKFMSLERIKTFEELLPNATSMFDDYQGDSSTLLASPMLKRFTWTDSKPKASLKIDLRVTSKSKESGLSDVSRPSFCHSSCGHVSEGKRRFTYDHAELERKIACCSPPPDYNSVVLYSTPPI
T1 sequence (P35968 whole entry): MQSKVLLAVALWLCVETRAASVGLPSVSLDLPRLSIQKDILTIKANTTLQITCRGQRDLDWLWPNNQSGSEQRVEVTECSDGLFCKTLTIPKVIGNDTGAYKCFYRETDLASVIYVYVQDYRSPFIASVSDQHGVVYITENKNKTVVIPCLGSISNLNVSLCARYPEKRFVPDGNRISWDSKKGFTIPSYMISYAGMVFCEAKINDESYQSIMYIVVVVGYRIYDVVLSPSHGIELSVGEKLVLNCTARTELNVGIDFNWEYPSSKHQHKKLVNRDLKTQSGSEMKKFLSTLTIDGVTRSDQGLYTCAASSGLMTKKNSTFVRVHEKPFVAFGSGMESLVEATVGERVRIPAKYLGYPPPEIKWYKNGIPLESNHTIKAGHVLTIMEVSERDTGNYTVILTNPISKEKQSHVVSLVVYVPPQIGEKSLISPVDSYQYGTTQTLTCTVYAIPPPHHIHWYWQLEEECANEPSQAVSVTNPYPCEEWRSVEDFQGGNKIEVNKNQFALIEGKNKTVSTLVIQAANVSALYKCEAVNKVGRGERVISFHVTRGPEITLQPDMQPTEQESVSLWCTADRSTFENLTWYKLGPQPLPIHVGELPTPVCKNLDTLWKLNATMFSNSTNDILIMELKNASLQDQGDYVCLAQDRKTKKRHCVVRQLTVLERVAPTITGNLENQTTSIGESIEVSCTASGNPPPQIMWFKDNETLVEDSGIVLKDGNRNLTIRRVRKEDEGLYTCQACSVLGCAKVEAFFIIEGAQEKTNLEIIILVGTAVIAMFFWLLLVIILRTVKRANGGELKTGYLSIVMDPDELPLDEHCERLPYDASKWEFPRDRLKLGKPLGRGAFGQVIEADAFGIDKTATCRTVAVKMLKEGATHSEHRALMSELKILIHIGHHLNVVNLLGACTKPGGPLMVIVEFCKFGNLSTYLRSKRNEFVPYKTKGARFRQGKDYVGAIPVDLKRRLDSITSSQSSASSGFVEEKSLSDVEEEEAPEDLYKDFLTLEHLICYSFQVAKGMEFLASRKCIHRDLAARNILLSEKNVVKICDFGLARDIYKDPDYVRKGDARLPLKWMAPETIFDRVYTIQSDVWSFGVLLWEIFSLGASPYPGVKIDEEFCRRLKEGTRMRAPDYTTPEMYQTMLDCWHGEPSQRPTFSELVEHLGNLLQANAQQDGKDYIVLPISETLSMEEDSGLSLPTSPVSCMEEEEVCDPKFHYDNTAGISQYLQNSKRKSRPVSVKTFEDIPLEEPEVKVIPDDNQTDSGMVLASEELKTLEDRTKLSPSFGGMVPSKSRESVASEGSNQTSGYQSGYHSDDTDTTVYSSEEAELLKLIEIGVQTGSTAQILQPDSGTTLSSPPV

## CC(C)(C)c1ccc(Nc2nnc(-c3cnccc3CCc3ccncc3)o2)cc1
[1]; read-out: IC50
  IC50: 520 nM
[2]
  IC50: 480 nM
[3]
  IC50: 310 nM

## c1cnc(CCc2ccncc2)c(-c2nnc(NCc3ccc4c(c3)OCO4)o2)c1
[1]; read-out: IC50
  IC50: 290 nM
[2]
  IC50: 140 nM
[4]
  Pm: 23.6 10^-5 cm/min
[3]
  IC50: 85 nM

## COc1cccc(Nc2nnc(-c3cccnc3CCc3ccncc3)o2)c1
[1]; read-out: IC50
  IC50: 290 nM
[2]
  IC50: 500 nM
[3]
  IC50: 170 nM

## FC(F)(F)Oc1cccc(Nc2nnc(-c3cccnc3CCc3ccncc3)o2)c1
[1]; read-out: IC50
  IC50: 110 nM
[2]
  IC50: 260 nM
[4]
  Pm: 42.6 10^-5 cm/min
[3]
  IC50: 69 nM

## O=C(Nc1cnc2ccccc2c1)c1ccccc1NCc1ccncc1
[4]
  Pm: 17.3 10^-5 cm/min

## FC(F)(F)c1cccc(Nc2nnc(-c3cc4ccccc4nc3CCc3ccncc3)o2)c1
[1]; read-out: IC50
  IC50: > 10000 nM
[2]
  IC50: > 10000 nM
[3]
  IC50: > 10000 nM

## FC(F)(F)c1cccc(Nc2nnc(-c3cnccc3CCc3ccncc3)o2)c1
[1]; read-out: IC50
  IC50: 2540 nM
[2]
  IC50: 1220 nM
[3]
  IC50: 720 nM

## FC(F)(F)c1ccc(Nc2nnc(-c3cccnc3CCc3ccncc3)o2)cc1
[1]; read-out: IC50
  IC50: 76 nM
[2]
  IC50: 320 nM
[5]
  Ki: 120 nM
[3]
  IC50: 58 nM

## FC(F)(F)c1cccc(Nc2nnc(-c3cccnc3CCc3ccc4[nH]ncc4c3)o2)c1
[1]; read-out: IC50
  IC50: > 10000 nM
[2]
  IC50: > 10000 nM
[3]
  IC50: 3870 nM

## FC(F)(F)c1cccc(Nc2nnc(-c3cccnc3CCc3ccc4ccccc4n3)o2)c1
[1]; read-out: IC50
  IC50: > 10000 nM
[2]
  IC50: > 10000 nM
[3]
  IC50: > 10000 nM

## FC(F)(F)c1ccc(Nc2nnc(-c3ccncc3CCc3ccncc3)o2)cc1
[1]; read-out: IC50
  IC50: 720 nM
[2]
  IC50: 840 nM
[3]
  IC50: 290 nM

## FC(F)(F)Oc1cccc(Nc2nnc(-c3ccncc3CCc3ccncc3)o2)c1
[1]; read-out: IC50
  IC50: 860 nM
[2]
  IC50: 710 nM
[3]
  IC50: 470 nM

## c1ccc2ncc(Nc3nnc(-c4cc5ccccc5nc4CCc4ccncc4)o3)cc2c1
[2]
  IC50: > 10000 nM
[3]
  IC50: > 10000 nM

## FC(F)(F)Oc1cccc(Nc2nnc(-c3cnccc3CCc3ccncc3)o2)c1
[1]; read-out: IC50
  IC50: 760 nM
[2]
  IC50: 740 nM
[3]
  IC50: 550 nM

## CC(C)(C)c1ccc(Nc2nnc(-c3cc4ccccc4nc3CCc3ccncc3)o2)cc1
[2]
  IC50: > 10000 nM
[3]
  IC50: > 10000 nM

## FC(F)(Cl)Oc1ccc(Nc2nnc(-c3ccncc3CCc3ccncc3)o2)cc1
[1]; read-out: IC50
  IC50: 530 nM
[2]
  IC50: 810 nM
[3]
  IC50: 220 nM

## FC(F)(F)c1cccc(Nc2nnc(-c3cccnc3CCc3cccc4ncccc34)o2)c1
[1]; read-out: IC50
  IC50: > 10000 nM
[2]
  IC50: > 10000 nM
[3]
  IC50: 5640 nM

## Fc1ccc(CCc2ncccc2-c2nnc(Nc3cccc(C(F)(F)F)c3)o2)cc1F
[1]; read-out: IC50
  IC50: > 10000 nM
[2]
  IC50: > 10000 nM
[3]
  IC50: > 10000 nM

## CC(C)c1ccc(Nc2nnc(-c3ccncc3CCc3ccncc3)o2)cc1
[1]; read-out: IC50
  IC50: 390 nM
[2]
  IC50: 270 nM
[3]
  IC50: 250 nM

## Cc1ccc(Nc2nnc(-c3cccnc3CCc3ccncc3)o2)cc1C(F)(F)F
[1]; read-out: IC50
  IC50: 92 nM
[2]
  IC50: 120 nM
[3]
  IC50: 87 nM

## FC(F)(F)c1cccc(Nc2nnc(-c3cccnc3CCc3ccccn3)o2)c1
[1]; read-out: IC50
  IC50: > 10000 nM
[2]
  IC50: > 10000 nM
[3]
  IC50: > 10000 nM

## c1cnc(CCc2ccncc2)c(-c2nnc(Nc3cnc4ccccc4c3)o2)c1
[1]; hek293
  IC50: Not Active
[2]
  IC50: 440 nM
[3]
  IC50: 380 nM

## Clc1ccc(Nc2nnc(-c3cccnc3CCc3ccncc3)o2)cc1Cl
[1]; read-out: IC50
  IC50: 94 nM
[2]
  IC50: 270 nM
[3]
  IC50: 79 nM

## CC(C)(C)c1ccc(Nc2nnc(-c3cccnc3CCc3ccncc3)o2)cc1
[1]; read-out: IC50
  IC50: 63 nM
[2]
  IC50: 770 nM
[6]
  Ki: 130 nM
[3]
  IC50: 43 nM

## CC(C)(C)c1ccc(Nc2nnc(-c3ccncc3CCc3ccncc3)o2)cc1
[1]; read-out: IC50
  IC50: 320 nM
[2]
  IC50: 220 nM
[3]
  IC50: 190 nM

## FC(F)(F)Oc1ccc(Nc2nnc(-c3cnccc3CCc3ccncc3)o2)cc1
[1]; read-out: IC50
  IC50: 510 nM
[2]
  IC50: 470 nM
[3]
  IC50: 360 nM

## FC(F)(F)Oc1ccc(Nc2nnc(-c3cccnc3CCc3ccncc3)o2)cc1
[1]; read-out: IC50
  IC50: 51 nM
[2]
  IC50: 560 nM
[3]
  IC50: 44 nM

## FC(F)(F)c1ccc(Nc2nnc(-c3cnccc3CCc3ccncc3)o2)cc1
[1]; read-out: IC50
  IC50: 740 nM
[2]
  IC50: 670 nM
[3]
  IC50: 440 nM

## FC(F)(F)c1cccc(Nc2nnc(-c3cccnc3CCc3ccncc3)o2)c1
[1]; read-out: IC50
  IC50: 110 nM
[2]
  IC50: 220 nM
[3]
  IC50: 64 nM

## FC(F)(Cl)Oc1ccc(Nc2nnc(-c3cnccc3CCc3ccncc3)o2)cc1
[1]; read-out: IC50
  IC50: 590 nM
[2]
  IC50: 530 nM
[3]
  IC50: 440 nM

## FC(F)(F)c1cccc(Nc2nnc(-c3cccnc3CCc3cccnc3)o2)c1
[1]; read-out: IC50
  IC50: > 10000 nM
[2]
  IC50: > 10000 nM
[3]
  IC50: > 10000 nM

## FC(F)(Cl)Oc1ccc(Nc2nnc(-c3cccnc3CCc3ccncc3)o2)cc1
[1]; read-out: IC50
  IC50: 44 nM
[2]
  IC50: 730 nM
[7]
  Ki: 100 nM
[3]
  IC50: 31 nM

## Cc1ccccc1Nc1nnc(-c2cccnc2CCc2ccncc2)o1
[2]
  IC50: > 10000 nM
[3]
  IC50: > 10000 nM

## c1ccc(-c2ccc(Nc3nnc(-c4cccnc4CCc4ccncc4)o3)cc2)cc1
[2]
  IC50: > 10000 nM
[3]
  IC50: 2630 nM

## COc1ccc(Nc2nnc(-c3cccnc3CCc3ccncc3)o2)cc1OC
[1]; read-out: IC50
  IC50: 110 nM
[2]
  IC50: 180 nM
[3]
  IC50: 67 nM

## CC(C)c1ccc(Nc2nnc(-c3cccnc3CCc3ccncc3)o2)cc1
[1]; read-out: IC50
  IC50: 75 nM
[2]
  IC50: 620 nM
[3]
  IC50: 51 nM

## FC(F)(F)c1cccc(Nc2nnc(-c3ccncc3CCc3ccncc3)o2)c1
[1]; read-out: IC50
  IC50: 1110 nM
[2]
  IC50: 760 nM
[3]
  IC50: 560 nM

## FC(F)(F)Oc1ccc(Nc2nnc(-c3ccncc3CCc3ccncc3)o2)cc1
[1]; read-out: IC50
  IC50: 660 nM
[2]
  IC50: 930 nM
[3]
  IC50: 350 nM

## Cc1cccc(Nc2nnc(-c3cccnc3CCc3ccncc3)o2)c1
[1]; read-out: IC50
  IC50: 2140 nM
[2]
  IC50: 1070 nM
[3]
  IC50: 770 nM
